Source: patent US20020111355A1, “Cyclic urea and cyclic amide derivatives” (American Home Products Corporation, priority 1999, published 2002)

What was measured:
[1] = test system: rat uterine decidualization; test: Rat decidualization assay; conditions: average over dose-response curves; decidual response; s.c.
[2] = test system: T47D cells; test: T47D cell proliferation assay (BrdU incorporation); type: cell-based; conditions: Homo sapiens, decrease in trimegestone induced BrdU incorporation (0.03 nM trimegestone), individual studies
Procedure: 3. T47D Cell Proliferation Assay
The objective of this assay is the determination of progestational and antiprogestational potency by using a cell proliferation assay in T47D cells. A compound's effect on DNA synthesis in T47D cells is measured.
DMEM:F12 (1:1) (GIBCO, BRL) supplemented with 10% (v/v) fetal bovine serum (not heat-inactivated), 100 U/ml penicillin, […], and 2 mM GlutaMax (GIBCO, BRL).
Minimum Essential Medium (MEM) (#51200-038GIBCO, BRL) phenol red-free supplemented with 0.5% charcoal stripped fetal bovine serum, 100 U/ml penicillin, […] streptomycin, and 2 mM GlutaMax (GIBCO, BRL). […]
At the end of BrdU labeling, the medium is removed and BrdU incorporation is measured using a cell proliferation ELISA kit (#RPN 250, Amersham Life Science) according to manufacturer's instructions. […] Then 25 μl of 1 M sulfuric acid is added to each well to stop color reaction and optical density is read in a plate reader at 450 nm within 5 min.
Square root-transformed data are used for analysis of variance and nonlinear dose response curve fitting for both agonist and antagonist modes. […] EC50 or IC50 values are calculated from the retransformed values. […]

Structure (SMILES) | average EC50 [1] | further results
C#C[C@]1(O)CC[C@H]2[C@@H]3CCC4=CC(=O)CC[C@@H]4[C@H]3CC[C@@]21CC [Levonorgestrel] | 0.10 mg/kg. s.c. | 
C#C[C@]1(O)CC[C@H]2[C@@H]3CCC4=CC(=O)CC[C@@H]4[C@H]3C(=C)C[C@@]21CC [3-Ketodesogestrel] | 0.10 mg/kg. s.c. | 
CC1(C)OC(=O)Nc2ncc(-c3cccc(Cl)c3)cc21 [Example 4, 6-(3-Chloro-phenyl)-4,4-dimethyl-1,4-dihydro-3-oxa-1,8-diaza-naphthalene-2-one] |  | melting point: 214 to 215 °C
CC#C[C@]1(O)CC[C@H]2[C@@H]3CCC4=CC(=O)CCC4=C3[C@@H](c3ccc(N(C)C)cc3)C[C@@]21C [RU486] |  | IC50 [2]: 0.011 nM
